Assay results reported in ChEMBL document CHEMBL3763116, “Synthesis and evaluation of colletoic acid core derivatives” (Eur J Med Chem, 2016).

How the values were obtained:
[1] = system: BJ; experiment: Cytotoxicity against human BJ cells after 72 hrs by Cell TitreGlo assay; format: cell-based
[2] = target: 11-beta-hydroxysteroid dehydrogenase 1 (Homo sapiens, UniProt P28845); experiment: Inhibition of 11beta-HSD1 (unknown origin) using cortisol as substrate assessed as NADPH formation by fluorescent plate reader analysis
11-beta-hydroxysteroid dehydrogenase 1, sequence (P28845 whole entry): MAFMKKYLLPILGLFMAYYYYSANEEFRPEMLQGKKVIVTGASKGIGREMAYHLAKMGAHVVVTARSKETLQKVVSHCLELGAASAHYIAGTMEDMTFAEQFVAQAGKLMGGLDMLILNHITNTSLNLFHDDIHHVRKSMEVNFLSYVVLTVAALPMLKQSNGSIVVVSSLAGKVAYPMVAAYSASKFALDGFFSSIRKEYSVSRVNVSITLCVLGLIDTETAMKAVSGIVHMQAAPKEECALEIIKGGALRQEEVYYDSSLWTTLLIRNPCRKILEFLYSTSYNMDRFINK

[3] = target: T1, 11-beta-hydroxysteroid dehydrogenase type 2 (Homo sapiens, UniProt P80365); experiment: Inhibition of full length human 11beta-HSD2 expressed in HEK293 cells using […] as substrate incubated for 2 hrs by HTRF assay in presence of NAD+; format: cell-based
T1 sequence (P80365 whole entry): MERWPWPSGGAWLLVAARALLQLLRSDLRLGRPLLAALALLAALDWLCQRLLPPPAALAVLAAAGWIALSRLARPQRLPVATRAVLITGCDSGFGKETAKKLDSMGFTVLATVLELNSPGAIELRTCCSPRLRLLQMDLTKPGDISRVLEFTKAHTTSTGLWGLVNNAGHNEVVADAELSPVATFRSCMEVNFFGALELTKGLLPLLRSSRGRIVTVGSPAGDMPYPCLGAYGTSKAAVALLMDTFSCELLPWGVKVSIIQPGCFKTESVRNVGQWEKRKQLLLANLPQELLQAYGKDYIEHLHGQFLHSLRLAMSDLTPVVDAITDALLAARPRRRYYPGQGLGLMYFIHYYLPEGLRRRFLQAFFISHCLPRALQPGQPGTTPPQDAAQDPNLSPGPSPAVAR

IC50 [2]	IC50 [3]	SMILES	EC50 [1]
> 1000 µM		C=C1CC[C@H](C(=O)OCC)[C@@]12C=CC(=O)CC2	> 90 µM
122 µM	> 1000 µM	CC(C)C1=CC[C@H](C(=O)Nc2ncc(-c3ccc(Cl)cc3)s2)[C@@]12C=CC(=O)CC2	> 90 µM
> 1000 µM		CC(C)C1=CC[C@H](C(N)=O)[C@@]12C=CC(=O)CC2	> 90 µM
> 1000 µM	> 1000 µM	CC(C)C1=CC[C@H](CSc2nc3ccccc3o2)[C@@]12C=CC(=O)CC2	> 90 µM
> 1000 µM		CC(C)C1=CC[C@H]2C(=O)O[C@@H]3CC(=O)CC[C@@]132	> 90 µM
> 1000 µM	> 1000 µM	CCCCCCSc1nnc(SC[C@H]2CC=C(C(C)C)[C@]23C=CC(=O)CC3)s1	> 90 µM
> 1000 µM		CC(C)[C@@H]1CC[C@H](CO)[C@]12CC[C@](C)(O)[C@H]1O[C@H]12	> 90 µM
> 1000 µM		CC(C)[C@@H]1CC[C@@H]2CO[C@@H]3C[C@](C)(O)CC[C@]231	> 90 µM
> 1000 µM		CC(C)C1=CC[C@H](CO)[C@]12CCC(=O)[C@H]1O[C@H]12	> 90 µM
> 1000 µM		CC1=CC[C@H](CO)[C@@]12C=CC(=O)CC2	> 90 µM
8 µM	> 1000 µM	CC(C)C1=CC[C@H](CS(=O)(=O)c2ccc3ccccc3c2)[C@@]12C=CC(=O)CC2	> 90 µM
> 1000 µM		CC(C)[C@@H]1CC[C@H](CO)[C@]12CC[C@@](C)(O)[C@@H](O)C2	> 90 µM
> 1000 µM	> 1000 µM	CC(C)C1=CC[C@H](CS(=O)(=O)c2nc3ccccc3o2)[C@@]12C=CC(=O)CC2	> 90 µM
85 µM	> 1000 µM	CC(C)C1=CC[C@H](C(=O)NC(C)C23CC4CC(CC(C4)C2)C3)[C@@]12C=CC(=O)CC2 (stereo partly specified)	> 90 µM
> 1000 µM	> 1000 µM	COc1ccc(S(=O)(=O)NCc2cn(C[C@H]3CC=C(C(C)C)[C@]34C=CC(=O)CC4)nn2)cc1	> 90 µM
> 1000 µM		CC(C)C1=CC[C@H](CO)[C@@]12C=C[C@](C)(O)CC2	> 90 µM
> 1000 µM		CC(C)C1=CC[C@H](CO)[C@]12CC[C@](C)(O)[C@H]1O[C@H]12	> 90 µM
18 µM	> 1000 µM	CC(C)=CCC/C(C)=C/CNC(=O)[C@H]1CC=C(C(C)C)[C@]12C=CC(=O)CC2	> 90 µM
> 1000 µM		CC(C)C1=CC[C@H](CO[Si](C)(C)C(C)(C)C)[C@]12CC[C@@]1(O[Si](C)(C)C(C)(C)C)O[C@H]1C2	> 90 µM
> 1000 µM		CC(C)C1=CC[C@H](CO)[C@@]12C=CC(=O)CC2	> 90 µM
74 µM	> 1000 µM	CCn1c2ccccc2c2nnc(S(=O)(=O)C[C@H]3CC=C(C(C)C)[C@]34C=CC(=O)CC4)nc21	> 90 µM

IC50 [2]	IC50 [3]	SMILES	EC50 [1]
> 1000 µM		CC1=CC(=O)[C@@]2(CC1)C(C(C)C)=CC[C@@H]2CO[Si](C)(C)C(C)(C)C	> 90 µM
> 1000 µM		CC(C)C1=CC[C@H](CO)[C@]12CC[C@@](C)(O)C[C@H]2O	> 90 µM
> 1000 µM		CC1=CC[C@@]2(CC1)C(C(C)C)=CC[C@@H]2CO	> 90 µM
> 1000 µM		C[C@@]1(O)CC[C@]23c4ccccc4C[C@@H]2CO[C@@H]3[C@@H]1O	> 90 µM
> 1000 µM		CCOC(=O)[C@H]1CC[C@@H](C(C)C)[C@]12C=CC(=O)CC2	> 90 µM
> 1000 µM	> 1000 µM	CC(C)C1=CC[C@H](CS(=O)(=O)c2nc3ccccc3s2)[C@@]12C=CC(=O)CC2	> 90 µM
> 1000 µM		O=C1CC[C@@]2(c3ccccc3C[C@@H]2CO)[C@@H]2O[C@H]12	> 90 µM
245 µM	> 1000 µM	CC(C)C1=CC[C@H](CS(=O)(=O)c2nnnn2-c2ccccc2)[C@@]12C=CC(=O)CC2	> 90 µM
> 1000 µM		CC(C)[C@@H]1CC[C@H](CO)[C@]12CC[C@@](C)(O)C[C@H]2O	> 90 µM
94 µM	> 1000 µM	CC(C)C1=CC[C@H](C(=O)NCC2CCC3CC2C3(C)C)[C@@]12C=CC(=O)CC2 (stereo partly specified)	> 90 µM
121 µM	> 1000 µM	CCCCCCSc1nnc(S(=O)(=O)C[C@H]2CC=C(C(C)C)[C@]23C=CC(=O)CC3)s1	> 90 µM
> 1000 µM	> 1000 µM	CC(C)C1=CC[C@H](CSc2nnnn2-c2ccccc2)[C@@]12C=CC(=O)CC2	> 90 µM
> 1000 µM		O=C1C=C[C@@]2(CC1)c1ccccc1C[C@@H]2CO	> 90 µM
> 1000 µM		CCOC(=O)[C@H]1CC[C@@H](C(C)C)[C@]12C=CC(O)[C@@H](OC(C)=O)C2 (single isomer, unassigned)	> 90 µM
> 1000 µM		CC(C)C1=CC(=O)[C@H](CO[Si](C)(C)C(C)(C)C)[C@@]12C=C[C@](C)(O)CC2	> 90 µM
> 1000 µM		CCOC(=O)[C@H]1CC[C@@H](C(C)C)[C@]12CCC(=O)[C@@H](OC(C)=O)C2	> 90 µM
> 1000 µM		C=C1C=C[C@]2(CC1)[C@@H](C(=O)OCC)CC[C@H]2C(C)C	> 90 µM
341 µM	> 1000 µM	CC(C)C1=CC[C@H](CN2C(=O)c3ccccc3S2(=O)=O)[C@@]12C=CC(=O)CC2	> 90 µM
> 1000 µM		C=C1C(=O)C[C@]2(C[C@@H]1OC(C)=O)[C@@H](C(=O)OCC)CC[C@H]2C(C)C	> 90 µM
> 1000 µM		COC1(OC)C=C[C@@]2(CC1)C(C(C)C)=CC[C@@H]2CO	> 90 µM
> 1000 µM	> 1000 µM	CC(C)C1=CC[C@H](CSc2nc3ccccc3s2)[C@@]12C=CC(=O)CC2	> 90 µM

IC50 [2]	IC50 [3]	SMILES	EC50 [1]
> 1000 µM	> 1000 µM	CC(C)C1=CC[C@H](Cn2cc(CNC(=O)OC(C)(C)C)nn2)[C@@]12C=CC(=O)CC2	> 90 µM
33 µM	> 1000 µM	CCn1c2ccccc2c2nnc(SC[C@H]3CC=C(C(C)C)[C@]34C=CC(=O)CC4)nc21	> 90 µM
> 1000 µM		CCOC[C@H]1CC=C(C(C)C)[C@]12C=CC(=O)CC2	> 90 µM
> 1000 µM		CC(C)C1=CC[C@H](CO)[C@]12CC[C@@](C)(O)[C@@H](O)C2	> 90 µM
> 1000 µM		CC(C)C1=CC[C@H](CO)C12CCC(=O)CC2	> 90 µM
> 1000 µM	> 1000 µM	CC(C)C1=CC[C@H](C(=O)NCc2cc(F)cc(F)c2)[C@@]12C=CC(=O)CC2	> 90 µM
> 1000 µM		CC(C)(C)[Si](C)(C)OCCC1=CC[C@H](CO)[C@@]12C=CC(=O)CC2	> 90 µM
> 1000 µM		CCOC(=O)[C@H]1CC=C(C(C)C)[C@]12C=CC(=O)[C@@H](OC(C)=O)C2	> 90 µM
> 1000 µM		O=C1C=C[C@@]2(CC1)C(COCc1ccccc1)=CC[C@@H]2CO	> 90 µM
> 1000 µM	> 1000 µM	CC(C)C1=CC[C@H](CN2C(=O)c3ccccc3C2=O)[C@@]12C=CC(=O)CC2	> 90 µM
> 1000 µM		O=C1C=C[C@@]2(CC1)C(c1ccccc1)=CC[C@@H]2CO	> 90 µM
> 1000 µM		CC(C)C1=CC[C@H](CO)[C@]12CC[C@](C)(O)[C@@H](O)C2	> 90 µM
> 1000 µM		CC(C)[C@@H]1CC[C@@H]2CO[C@@H]3[C@H](O)[C@](C)(O)CC[C@]231	> 90 µM
> 1000 µM	> 1000 µM	CC(C)C1=CC[C@H](CSc2ccc3ccccc3c2)[C@@]12C=CC(=O)CC2	> 90 µM
> 1000 µM	> 1000 µM	CC(C)C1=CC[C@H](C(=O)NCCc2cccs2)[C@@]12C=CC(=O)CC2	> 90 µM
> 1000 µM		CC(C)C1=CC[C@H](C(=O)O)[C@@]12C=CC(=O)CC2	> 90 µM
> 1000 µM		C=C1CC[C@]2(C[C@@H]1OC(C)=O)[C@@H](C(=O)OCC)CC[C@H]2C(C)C	> 90 µM
> 1000 µM	> 1000 µM	CC(C)C1=CC[C@H](Cn2cc(CN(c3ncccn3)S(=O)(=O)c3ccc(N)cc3)nn2)[C@@]12C=CC(=O)CC2	> 90 µM
> 1000 µM		CC(C)[C@@H]1CC[C@H](CO)[C@]12CC[C@@](C)(O)[C@H]1O[C@H]12	> 90 µM

SMILES	IC50 [2]	IC50 [3]	EC50 [1]
O=C1C=C[C@@]2(CC1)c1ccccc1C[C@@H]2C(=O)O	> 1000 µM		> 90 µM
C[C@H]1CC[C@@]2(c3ccccc3C[C@@H]2C(=O)O)[C@H](O)[C@@H]1O	> 1000 µM		> 90 µM
CC1=CC[C@@]2(c3ccccc3C[C@@H]2C(=O)O)[C@H](O)[C@@H]1O	> 1000 µM		> 90 µM
